From patent US20240116985A1, “STAPLED PEPTIDES AND METHODS THEREOF” (priority 2020, published 2024)
Starred links: 1 amine or outer side, 2 acyl side, 3 side chain; linkers in the order of their positions; H or OH if unused. Positions of bridges follow the written chain, without caps; N, C: chain ends. Non-standard residues stand in square brackets, D forms with d. Residues, ends and D or L forms follow the SMILES beside them. X3 = O=C([C@]1(CC=[*:3])CCCN1[*:1])[*:2]; Bta = N[C@@H](Cc1csc2ccccc12)C(=O)O; tBuAla = CC(C)(C)C[C@H](N)C(=O)O; 3Thi = N[C@@H](Cc1ccsc1)C(=O)O; R5 = C=CCCC[C@@](C)(N)C(=O)O; S5 = C=CCCC[C@](C)(N)C(=O)O

Target: T1, full-length beta-Catenin (Uniprot ID P35222) (Homo sapiens, UniProt P35222)
T1 construct: 10 nM full-length beta-Catenin (Uniprot ID P35222)
T1 sequence (P35222 1-781): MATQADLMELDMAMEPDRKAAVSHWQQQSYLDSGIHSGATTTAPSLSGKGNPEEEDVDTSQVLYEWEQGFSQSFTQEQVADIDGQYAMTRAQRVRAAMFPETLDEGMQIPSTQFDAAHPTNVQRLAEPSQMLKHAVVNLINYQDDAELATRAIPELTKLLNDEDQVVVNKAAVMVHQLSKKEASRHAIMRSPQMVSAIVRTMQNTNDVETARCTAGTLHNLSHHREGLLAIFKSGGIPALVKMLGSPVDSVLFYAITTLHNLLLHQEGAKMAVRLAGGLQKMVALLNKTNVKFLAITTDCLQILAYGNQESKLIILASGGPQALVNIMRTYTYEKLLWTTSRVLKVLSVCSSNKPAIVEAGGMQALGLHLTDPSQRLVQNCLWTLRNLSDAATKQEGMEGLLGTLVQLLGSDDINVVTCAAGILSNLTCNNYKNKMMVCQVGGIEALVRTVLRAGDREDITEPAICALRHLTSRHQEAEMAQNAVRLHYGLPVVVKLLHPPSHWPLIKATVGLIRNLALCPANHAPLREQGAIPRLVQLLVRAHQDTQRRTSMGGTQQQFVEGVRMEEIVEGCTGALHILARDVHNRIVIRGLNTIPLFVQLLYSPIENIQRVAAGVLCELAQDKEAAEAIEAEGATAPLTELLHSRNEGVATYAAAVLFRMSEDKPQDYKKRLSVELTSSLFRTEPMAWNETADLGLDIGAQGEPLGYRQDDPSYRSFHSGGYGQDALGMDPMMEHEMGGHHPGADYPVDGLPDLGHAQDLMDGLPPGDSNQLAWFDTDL
Experiment: Fluorescence polarization IC50 (beta-catenin / 5FAM-TCF4 10-53 competition)
Type: binding
Conditions: fluorescence polarization; read-out: beta-Catenin FP IC50

SMILES	IC50
CC(=O)N1CCC[C@]12CC=CCCCC1(CCCC=CCCCOC(=O)N3CC[C@@](C(=O)N[C@@H](Cc4ccsc4)C(=O)N[C@@H](Cc4c[nH]c5ccccc45)C(=O)N[C@@H](CCC(N)=O)C(N)=O)(C3)NC(=O)[C@H](CC(N)=O)NC(=O)[C@H](Cc3ccccc3)NC(=O)[C@H](C)NC(=O)[C@H](C)NC(=O)[C@H]([C@@H](C)O)NC(=O)[C@H](CC(N)=O)NC1=O)NC(=O)[C@H](CC(C)(C)C)NC(=O)[C@H](CC(=O)O)NC2=O (stereo partly drawn) [I-1876, Ac-PL3-Asp-Npg-B5-Asn-Thr-Ala-Ala-Phe-Asn-PyrS2-3Thi-Trp-Gln-NH2]	1340 nM
CC(=O)N1CCC[C@]12CC=CCCCC1(CCCC=CCCCOC(=O)N3CC[C@@](C(=O)N[C@@H](Cc4ccsc4)C(=O)N[C@@H](Cc4cn(C)c5ccccc45)C(=O)N[C@@H](CCC(N)=O)C(N)=O)(C3)NC(=O)[C@H](CC(C)C)NC(=O)[C@H](Cc3ccccc3)NC(=O)[C@H](C)NC(=O)[C@H](C)NC(=O)[C@H](CC(=O)O)NC(=O)[C@H](CC(=O)O)NC1=O)NC(=O)[C@H](CC(C)(C)C)NC(=O)[C@H](CC(=O)O)NC2=O (stereo partly drawn) [I-1433, Ac-PL3-Asp-Npg-B5-Asp-Asp-Ala-Ala-Phe-Leu-PyrS2-3Thi-1MeW-Gln-NH2]	71 nM
CC(=O)N1CCC[C@]12CC=CCCC[C@@](C)(C(=O)N[C@@H](CC(=O)O)C(=O)N[C@@H](CC(=O)O)C(=O)N[C@@H](C)C(=O)N[C@@H](C)C(=O)N[C@@H](Cc1ccccc1)C(=O)N[C@]1(C)CCCC=CCCC[C@@](C)(C(=O)N[C@@H](C)C(N)=O)NC(=O)[C@H](Cc3csc4ccccc34)NC(=O)[C@H](Cc3ccsc3)NC(=O)[C@H](C)NC1=O)NC(=O)[C@H](CC(C)(C)C)NC(=O)[C@H](CC(=O)O)NC2=O [I-1778, Ac-PL3-Asp-Npg-S5-Asp-Asp-Ala-Ala-Phe-R5-Ala-3Thi-BztA-S5-Ala-NH2] (Ac-[X3]D[tBuAla][S5]DDAAF[R5]A[3Thi][Bta][S5]A-NH2; staple 1-4, 10-14 (inferred))	2080 nM
CC(=O)N1CCC[C@]12CC=CCCCC1(CCCC=CCCCCCC[C@@](C)(C(=O)N[C@@H](Cc3ccccc3C(F)(F)F)C(=O)N[C@@H](Cc3csc4ccccc34)C(=O)N[C@H](CO)[C@@H](C)O)NC(=O)[C@H](CCO)NC(=O)[C@H](Cc3ccccc3)NC(=O)[C@H](C)NC(=O)[C@H](C)NC(=O)[C@H](CC(=O)O)NC(=O)[C@H](CC(=O)O)NC1=O)NC(=O)[C@H](CC(C)(C)C)NC(=O)[C@H](CC(=O)O)NC2=O (stereo partly drawn) [I-1398, Ac-PL3-Asp-Npg-B5-Asp-Asp-Ala-Ala-Phe-Hse-S8-2F3MeF-BztA-Thro1]	73 nM
CC(=O)N1CCC[C@]12CC=CCCCC1(CCCC=CCCCOC(=O)N3CC[C@@](C(=O)N[C@@H](Cc4ccsc4)C(=O)N[C@@H](Cc4csc5ccccc45)C(=O)N[C@@H](CCC(N)=O)C(N)=O)(C3)NC(=O)[C@H](CC(C)C)NC(=O)[C@H](Cc3ccccc3)NC(=O)[C@H](CCCCNC(=O)C34CC5(C)CC(C)(CC(C)(C5)C3)C4)NC(=O)[C@H](C)NC(=O)[C@H](CC(=O)O)NC(=O)[C@H](CC(=O)O)NC1=O)NC(=O)[C@H](CC(C)(C)C)NC(=O)[C@H](CC(=O)O)NC2=O (stereo partly drawn) [I-1475, Ac-PL3-Asp-Npg-B5-Asp-Asp-Ala-[Me3AdamantC]-Lys-Phe-Leu-PyrS2-3Thi-BztA-Gln-NH2]	113 nM
C[C@@H]1NC(=O)[C@H](C)NC(=O)[C@H](CC(=O)O)NC(=O)[C@H](CC(=O)O)NC(=O)C2(CCCC=CCCCOC(=O)N3CC[C@@](C(=O)N[C@@H](Cc4ccccc4)C(=O)N[C@@H](Cc4csc5ccccc45)C(=O)N[C@@H](CO)C(N)=O)(C3)NC(=O)[C@H](CO)NC(=O)[C@H](Cc3ccccc3)NC1=O)CCCC=CC[C@]1(CCCN1C(=O)CCCN(C)C)C(=O)N[C@@H](CC(=O)O)C(=O)N[C@@H](CC(C)(C)C)C(=O)N2 (stereo partly drawn) [I-1354, NdiMeButC-PL3-Asp-Npg-B5-Asp-Asp-Ala-Ala-Phe-Ser-PyrS2-Phe-BztA-Ser-NH2]	48 nM
CC[C@@H]1NC(=O)[C@H](Cc2ccccc2)NC(=O)[C@H](C)NC(=O)C(C)(C)NC(=O)[C@H](Cc2cccc(C(=O)O)c2)NC(=O)[C@H](CC(=O)O)NC(=O)C2(CCCC=CCCCOC(=O)N3CC[C@@](C(=O)N[C@@H](Cc4ccsc4)C(=O)N[C@@H](Cc4csc5ccccc45)C(=O)N[C@@H](CCC(=O)N4CCCCC4)C(=O)N[C@@H](C)C(N)=O)(C3)NC1=O)CCCC=CC[C@]1(CCCN1C(C)=O)C(=O)N[C@@H](CC(=O)O)C(=O)N[C@@H](CC(C)(C)C)C(=O)N2 (stereo partly drawn) [I-2476, Ac-PL3-Asp-Npg-B5-Asp-3COOHF-Aib-Ala-Phe-Abu-PyrS2-3Thi-BztA-[Pip]GlnR-Ala-NH2]	7 nM
CC(=O)N1CCC[C@]12CC=CCCCC1(CCCC=CCCCOC(=O)N3CC[C@@](C(=O)N[C@@H](Cc4ccccc4)C(=O)N[C@@H](Cc4csc5ccccc45)C(=O)N[C@@H](CCC(N)=O)C(N)=O)(C3)NC(=O)[C@H](CC(C)C)NC(=O)[C@H](Cc3ccccc3)NC(=O)[C@H](C)NC(=O)[C@H](CCCCNC(C)C)NC(=O)[C@H]([C@@H](C)O)NC(=O)[C@H](CC(=O)O)NC1=O)NC(=O)[C@H](CC(C)C)NC(=O)[C@H](CC(N)=O)NC2=O (stereo partly drawn) [I-1582, Ac-PL3-Asn-Leu-B5-Asp-Thr-iPrLys-Ala-Phe-Leu-PyrS2-Phe-BztA-Gln-NH2]	1220 nM
CC(=O)N1CCC[C@]12CC=CCCCC1(CCCC=CCCCOC(=O)N3CC[C@@](C(=O)N[C@@H](Cc4ccsc4)C(=O)N[C@@H](Cc4csc5ccccc45)C(=O)N[C@@H](CCC(N)=O)C(N)=O)(C3)NC(=O)[C@H](CCO)NC(=O)[C@H](Cc3ccccc3)NC(=O)[C@H](C)NC(=O)[C@H](C)NC(=O)[C@H](Cc3c[nH]c4ccccc34)NC(=O)[C@H](CC(=O)O)NC1=O)NC(=O)[C@H](CC(C)(C)C)NC(=O)[C@H](CC(=O)O)NC2=O (stereo partly drawn) [I-1789, Ac-PL3-Asp-Npg-B5-Asp-Trp-Ala-Ala-Phe-Hse-PyrS2-3Thi-BztA-Gln-NH2]	183 nM

The next lines start with the values.

IC50	SMILES
522 nM	CC(=O)N1CCC[C@H]1C(=O)N[C@]1(C)CCCC=CCCCC2(CCCC=CCCCOC(=O)N3CC[C@@](C(=O)N[C@@H](Cc4ccccc4C(F)(F)F)C(=O)N[C@@H](Cc4csc5ccccc45)C(=O)N[C@@H](CCC(N)=O)C(N)=O)(C3)NC(=O)[C@H](CC(C)C)NC(=O)[C@H](Cc3ccccc3)NC(=O)[C@H](C)NC(=O)[C@H](C)NC(=O)[C@H](Cc3cccc(C(=O)O)c3)NC(=O)[C@H](CC(=O)O)NC2=O)NC(=O)[C@H](CC(C)(C)C)NC(=O)[C@H](CC(=O)O)NC1=O (stereo partly drawn) [I-2567, Ac-Pro-R5-Asp-Npg-B5-Asp-3COOHF-Ala-Ala-Phe-Leu-PyrS2-2F3MeF-BztA-Gln-NH2]
188 nM	CC(=O)N1CCC[C@]12CC=CCCCC1(CCCC=CCCCCOC(=O)N3CC(C(=O)N[C@@H](Cc4ccccc4C(F)(F)F)C(=O)N[C@@H](Cc4csc5ccccc45)C(=O)N[C@@H](CCC(N)=O)C(N)=O)(C3)NC(=O)[C@H](CC(C)C)NC(=O)[C@H](Cc3ccccc3)NC(=O)[C@H](C)NC(=O)[C@H](C)NC(=O)[C@H](Cc3cccc(C(=O)O)c3)NC(=O)[C@H](CC(=O)O)NC1=O)NC(=O)[C@H](CC(C)(C)C)NC(=O)[C@H](CC(=O)O)NC2=O (stereo partly drawn) [I-2611, Ac-PL3-Asp-Npg-B5-Asp-3COOHF-Ala-Ala-Phe-Leu-Az3-2F3MeF-BztA-Gln-NH2]
75 nM	CC(=O)N1CCC[C@]12CC=CCCCC1(CCCC=CCCCOC(=O)N3CC[C@@](C(=O)N[C@@H](CC4CCCC4)C(=O)N[C@@H](Cc4csc5ccccc45)C(=O)N[C@@H](CO)C(N)=O)(C3)NC(=O)[C@H](CC(C)C)NC(=O)[C@H](Cc3ccccc3)NC(=O)[C@H](C)NC(=O)[C@H](C)NC(=O)[C@H](Cc3cccc(C(=O)O)c3)NC(=O)[C@H](CC(=O)O)NC1=O)NC(=O)[C@H](CC(C)(C)C)NC(=O)[C@H](CC(=O)O)NC2=O (stereo partly drawn) [I-1896, Ac-PL3-Asp-Npg-B5-Asp-3COOHF-Ala-Ala-Phe-Leu-PyrS2-CypA-BztA-Ser-NH2]
325 nM	CC(C)C[C@@H]1NC(=O)[C@H](Cc2ccccc2)NC(=O)[C@H](C)NC(=O)[C@H](C)NC(=O)[C@H](Cc2cccc(C(=O)O)c2)NC(=O)[C@H](CC(=O)O)NC(=O)C2(CCCC=CCCCOC(=O)N3CC[C@@](C(=O)N[C@@H](Cc4ccccc4Cl)C(=O)N[C@@H](Cc4csc5ccccc45)C(=O)N[C@@H](CCC(N)=O)C(N)=O)(C3)NC1=O)CCCC=CCCCC(=O)N1CCC[C@@H]1C(=O)N[C@@H](CC(=O)O)C(=O)N[C@@H](CC(C)(C)C)C(=O)N2 (stereo partly drawn) [I-1985, ProAm6-Asp-Npg-B5-Asp-3COOHF-Ala-Ala-Phe-Leu-PyrS2-2C1F-BztA-Gln-NH2]
2070 nM	CC(=O)N1CCC[C@]12CC=CCCCC1(CCCC=CCCCOC(=O)N3CC[C@@](C(=O)N[C@@H](Cc4ccsc4)C(=O)N[C@@H](Cc4csc5ccccc45)C(=O)N[C@@H](Cc4ccccc4)C(N)=O)(C3)NC(=O)[C@H]([C@@H](C)O)NC(=O)[C@H](Cc3ccccc3)NC(=O)[C@H](C)NC(=O)[C@H](C)NC(=O)[C@H]([C@@H](C)O)NC(=O)[C@H](CC(N)=O)NC1=O)NC(=O)[C@H](CC(C)(C)C)NC(=O)[C@H](CC(=O)O)NC2=O (stereo partly drawn) [I-2145, Ac-PL3-Asp-Npg-B5-Asn-Thr-Ala-Ala-Phe-Thr-PyrS2-3Thi-BztA-Phe-NH2]
